Measured values published in patent US8354387B2, “Methods and compositions for delivering siRNA into mammalian cells” (Centre National de la Recherche Scientifique, priority 2004, dated 2013).

System: 15PC3 cells or A549 cells (human bronchoalveolar carcinoma) tumors
Test: Tumour growth after intratumoral injection in Swiss nude mice
Assay type: in vivo
Settings: 20 days after injection
Experimental: FIG. 8: Cyclin-B1 siRNA inhibits tumour growth. Mice were infected subcutaneously with 15PC3 cells (ATCC no CRL-1435). One week later, MPG/siRNA complexes were injected directly into the tumour, at different concentrations (1 μg, 5 μg, 10 μg, in 50 μl of PBS).
Cyclin B1 siRNA inhibits tumor growth: In vivo injections and tumors analysis. Five weeks old female Swiss nude nice were injected subcutaneously with 2×10^7 15PC3 cells or A549 cells (n^o ATCC CCL-185) (human bronchoalveolar carcinoma). When tumors reached a mean volume of 50 to 100 mm^3, (a week later), mice were injected intra-tumorally or sub-tumorally with 50 μl of PBS containing anti cyclin B1 siRNA (1, 5, 10 μg) or scrambled siRNA (50 μg) complexed with MPG or siRNA (50 μg). 50 μl of PBS was used as a control. Tumor volume was measured with calipers every two days. A second injection was performed after 10 days and tumor size was measured after 20 days.
As delivery of siRNA directed against cyclin B1 blocked proliferation of cancer cells, the role of siRNA/MPG formulation to block tumor growth in vivo. The effect of the cyclin B1 siRNA was investigated on tumor animal model (FIG. 8), using Swiss nude nice, injected subcutaneously with 2×10^7 15PC3 cells or A549 cells (human bronchoalveolar carcinoma). Different MPG/siRNA complexed were injected intratumorally and monitoring tumor volumes followed the effect of siRNA.

## GALFLGFLGAAGSTMGAWSQPKKKRKV (carrier peptide) [MPG, bipartite amphipathic peptide derived from fusion peptide domain of HIV-1 gp41 and NLS of SV40 large T antigen]
  tumor size increase: 2.5 fold
